Values quoted from earlier work, collected in patent publication US8541386B2, “Cannabinoid 2 (CB2) receptor gene promoter and unique RNA transcripts in B cells and methods of use” (University of South Florida, priority 2009, dated 2013).

System: IL-4/anti-CD40 stimulated B cells
Details: co-treatment of IL-4/anti-CD40 stimulated B cells; earlier work of the inventors' lab

## CCCCCCC(C)(C)c1ccc([C@@H]2C[C@H](O)CC[C@H]2CCCO)c(O)c1 [CP55940]
  immunoglobulin class switching to IgE: increased immunoglobulin class switching to IgE
